According to US20250360111A1, “COMPOSITIONS OF AGPAT4 INHIBITORS AND METHODS OF USING THEREOF TO TREAT CANCER” (The University of Hong Kong, priority 2024, published 2025):
Like-named read-outs stand apart in the source and are kept apart here.

What was measured:
[1] = tested on: HCC cells (Huh7); assay: Rescue and PA addition experiments: migration, invasion, limiting dilution spheroid formation, western blot; assay type: cell-based, human; conditions: exogenous PA added to HCC cells
Description: Cells at limited dilutions were cultured in 100 μL serum-free DM E M/F12 medium (Invitrogen) supplemented with 20 ng/mL human recombinant epidermal growth factor (Sigma-Aldrich), 10 ng/mL human recombinant basic fibroblast growth factor (Sigma-Aldrich), […] (Sigma-Aldrich), B27 (1:50; Invitrogen), 500 U/mL penicillin, […] (Invitrogen), and 0.25% methylcellulose (Sigma-Aldrich). Cells were cultured in suspension in polyHEMA-coated 96-well plates. The cells were replenished with 30 μL of the supplemented medium every second day. The wells were monitored for sphere formation for 7-10 days. The tumor-initiating cell frequency was calculated using extreme limiting dilution analysis.
Cells were lysed in RIPA buffer (Cell Signalling Technology) containing a complete protease inhibitor cocktail (Roche) and PMSF (Sigma-Aldrich). Protein lysates were quantified and resolved on an SDS-PAGE gel, transferred onto a PV DF membrane (Pall), immunoblotted with a primary antibody, and incubated with a secondary antibody. The antibody signal was detected using the A mersham ECL Select Western Blotting Detection Reagent (GE Healthcare). […]

[2] = tested on: MHCC97L cells; assay: Orthotopic metastasis model, MHCC97L cells with AGPAT4 shRNA; assay type: in vivo, BALB/c nude mice; conditions: MHCC97L cells injected intrahepatically, n=7 per group
Description: Metastasis was assessed by orthotopic injection into the liver to observe extrahepatic metastasis to the lungs. […] Six to eight weeks after implantation, mice were administered 100 mg/kg D-luciferin (Gold Biotechnology) via peritoneal injection 5 min before bioluminescence imaging (IV IS 100 Imaging System, Xenogen). The livers and lungs were harvested for ex vivo imaging and histological analyses. The metastatic nodules in the lungs were counted.

[3] = tested on: advanced HCC; conditions: advanced unresectable HCC, cited from earlier work
[4] = tested on: AGPAT LPAAT family members (AGPAT1, 2, 3, 4 and 5); assay: Isoform specificity: streptavidin pulldown and immunoblotting of CL26-alkyne-bound proteins; assay type: cell-based, human; conditions: Huh7 cells, DTB-PEG-azide, streptavidin pulldown
Description: An in-gel fluorescence assay was performed to investigate the protein targets of CL26. Huh7 cells overexpressing AGPAT4 or cysteine mutants were pre-treated with CL26 at the indicated concentrations for 2 h, followed by CL26-alkyne (1 μM) treatment for another 2 h. Cells were harvested in RIPA buffer supplemented with protease and phosphatase inhibitors (Thermo Fisher Scientific #A32961). The proteins were precipitated by incubation with 6× volume of pre-chilled acetone at −20° C. overnight. Proteins were pelleted by centrifugation at 5000 g for 10 min and resuspended in PBS. The protein content was measured using the BCA assay and normalized to 2 mg/mL. Cell lysates (50 μL) were labelled with azide-fluor 545 by click reaction (final reaction mixture: azide-fluor 545 (25 μM), copper(II) sulfate (1 mM), TBTA (100 μM), and freshly prepared TCEP (1 mM)) at room temperature with constant agitation. After incubation for 1 h, the reaction was quenched with the sampling buffer and boiled at 90° C. for 5 min. Samples were subjected to SDS-PAGE, in-gel fluorescence was captured using ChemiDoc MP (Bio-Rad), and Coomassie Blue staining was performed. Similarly, immunoblotting was used to investigate the protein targets of CL26. […] The samples were subjected to SDS-PAG E and imaged for fluorescence signals before western blot analysis. […]

[5] = molecular target: T1, AGPAT4 (Homo sapiens, UniProt Q9NRZ5, C228A); assay: Competitive gel-based ABPP in live cells with CL26-alkyne probe; assay type: cell-based; conditions: Huh7 cells, AGPAT4 C228A mutation
T1 construct: The open reading frame (ORF) encoding the mRNA of AGPAT4 was cloned into the pDONR-221 donor vector; expressed in transfected cells; host or cells: Huh7
T1 sequence (Q9NRZ5 1-378 C228A): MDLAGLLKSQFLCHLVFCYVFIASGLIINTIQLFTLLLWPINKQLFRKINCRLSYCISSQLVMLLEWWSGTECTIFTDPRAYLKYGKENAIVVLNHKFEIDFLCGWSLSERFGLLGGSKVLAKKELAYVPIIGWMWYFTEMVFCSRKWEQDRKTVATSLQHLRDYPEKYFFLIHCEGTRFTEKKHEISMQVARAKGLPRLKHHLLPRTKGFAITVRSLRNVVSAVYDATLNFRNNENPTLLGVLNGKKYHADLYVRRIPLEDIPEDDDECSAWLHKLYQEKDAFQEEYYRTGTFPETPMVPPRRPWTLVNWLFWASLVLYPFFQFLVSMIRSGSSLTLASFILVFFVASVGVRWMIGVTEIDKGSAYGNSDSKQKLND
Description: An in-gel fluorescence assay was performed to investigate the protein targets of CL26. Huh7 cells overexpressing AGPAT4 or cysteine mutants were pre-treated with CL26 at the indicated concentrations for 2 h, followed by CL26-alkyne (1 μM) treatment for another 2 h. Cells were harvested in RIPA buffer supplemented with protease and phosphatase inhibitors (Thermo Fisher Scientific #A32961). The proteins were precipitated by incubation with 6× volume of pre-chilled acetone at −20° C. overnight. Proteins were pelleted by centrifugation at 5000 g for 10 min and resuspended in PBS. The protein content was measured using the BCA assay and normalized to 2 mg/mL. Cell lysates (50 μL) were labelled with azide-fluor 545 by click reaction (final reaction mixture: azide-fluor 545 (25 μM), copper(II) sulfate (1 mM), TBTA (100 μM), and freshly prepared TCEP (1 mM)) at room temperature with constant agitation. After incubation for 1 h, the reaction was quenched with the sampling buffer and boiled at 90° C. for 5 min. Samples were subjected to SDS-PAGE, in-gel fluorescence was captured using ChemiDoc MP (Bio-Rad), and Coomassie Blue staining was performed. Similarly, immunoblotting was used to investigate the protein targets of CL26. Huh7 cells stably transfected with FLAG-AGPAT4 were pre-treated with either the solvent control or CL26 at the indicated concentrations for 2 h, followed by CL26-alkyne (10 μM) treatment for another 2 h. Cells were harvested, and lysates were prepared as described above unless specified. Anti-FLAG M 2 affinity beads were added in FLAG-tag pull-down experiments. After 4 h of incubation at 4° C., the beads were washed with TBS-T and resuspended in TBS-T. Sampling buffer was added and the samples were boiled for protein elution. The samples were subjected to SDS-PAG E and imaged for fluorescence signals before western blot analysis. In the probe pull-down experiment, 1 mL of lysate was labelled with desthiobiotin (DTB)-azide by a click reaction (final reaction mixture: copper(II) sulfate (1 mM), TBTA (100 μM), DTB-PEG-azide (100 μM), and freshly prepared TCEP (1 mM)). […]

[6] = tested on: HCC; conditions: cited from earlier work
[7] = tested on: NRAS+AKT-driven HCC; assay: NRAS+AKT HTVI HCC mouse model, AAV8-shAgpat4 and sorafenib; assay type: in vivo, C57BL/6 mice; conditions: sorafenib alone, control (NTC) group
Description: Six- to eight-week-old male wildtype C57BL/6 mice (Jackson Laboratory) were used in this study. HTVI procedure was carried out as previously described (41, 42). Briefly, 20 μg of plasmids encoding human AKT1 (myristylated AKT1 or myr-AKT1) and human neuroblastoma Ras viral oncogene homolog (N-RasV12) along with sleeping beauty (SB) transposase at a ratio of 25:1 was diluted in 2 ml of saline (0.9% NaCl), filtered through a 0.22 μm filter and injected into the lateral tail vein of C57BL/6 mice in 5-7 s.
Four weeks after hydrodynamic tail vein injection of proto-oncogenes and SB transposase, the mice were separated into two groups and administered 1×10^11 transducing units of AAV8 virus encoding either shNTC or shAgpat4 in 100 μL PBS via tail vein injection. At 5.5 weeks, mice were administered another dose of the shNTC or shAgpat4 AAV8 virus. Mouse shNTC and mouse shAgpat4 target sequences were cloned into the LV3 vector: 5′-[…] TTTG-3′ (SEQ ID NO:1) and 5′-[…] […]-3′ (SEQ ID NO:2), respectively.
Sorafenib (30 mg/kg/day, delivered orally daily) administration began at 2-3 weeks post HTVI injection, at which point tumors started to develop. Sorafenib treatment lasted for 2.5 weeks, when tumors became non-responsive to the treatment (21). […] Tumor-bearing mice were euthanized at the humane endpoint.

[8] = tested on: HCC; conditions: cited from earlier work; remark: listed apart in the source
[9] = tested on: HCC; conditions: Asian study; cited from earlier work

18:1 phosphatidic acid [PA]
self-renewal, migration and invasion capacities [1]: markedly enhanced the self-renewal, migration, and invasion capacities of HCC cells

sh82: shRNA clone targeting human AGPAT4, clone ID NM_020133.3 (guide CCGGAUGAUUGGUGUGACGGAAAUUCUCGAGAAUUUCCGUCACACCAAUCAUUUUUUG)
tumors developing extrahepatic metastases in the lung [2]: 0 | tumors formed in the liver [2]: 5 of 7

CO[C@H]1C[C@@H]2CC[C@@H](C)[C@@](O)(O2)C(=O)C(=O)N2CCCC[C@H]2C(=O)O[C@H]([C@H](C)C[C@@H]2CC[C@@H](OCCO)[C@H](OC)C2)CC(=O)[C@H](C)/C=C(\C)[C@@H](O)[C@@H](OC)C(=O)[C@H](C)C[C@H](C)/C=C/C=C/C=C/1C [everolimus]
median progression free survival ([3]; 28 patients): 3.8 months | overall survival [3]: 8.4 months

C#CCCCN(Cc1ccc(-c2nc3ccccc3s2)o1)C(=O)CCl [CL26-alkyne]
specificity for AGPAT4 over other AGPAT LPAAT family members [4]: AGAPT4 was the only protein bound | CL26-alkyne binding to AGPAT4 cysteine mutant (fluorescence signal) [5]: complete abolishment of the fluorescence signal

sh83: second independent shRNA clone targeting human AGPAT4, printed sh83 in b403 (guide CCGGGUGAUCAUAGAAAGGGUAUUUCUCGAGAAAUACCCUUUCUAUGAUCACUUUUUG)
tumors developing extrahepatic metastases in the lung [2]: 0 | tumors formed in the liver [2]: 7 of 7

CNC(=O)c1cc(Oc2ccc(NC(=O)Nc3ccc(Cl)c(C(F)(F)F)c3)cc2)ccn1 [sorafenib]
median overall survival ([6]; SHARP trial): 10.7 months | tolerability ([6]; phase III trials): generally well tolerated | Agpat4 and p-mTOR expression in tumors [7]: increase in Agpat4 and p-mTOR expression | time to radiological progression under treatment ([8]; HCC): 4-5 months | expansion of patient median survival ([8]; first-line treatment of HCC): approximately 3 months | median overall survival [9]: 6.5 months
